Data taken from ChEMBL document CHEMBL1201862, “PubChem BioAssay data set” (2004).
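Assay format: 96-well plates, 48-hour exposure. GI50 marks 50% less growth.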 Activity calls are given as the source filed them. No stated cut-off is given here; in the data, active = GI50 up to about 1.1 µM and inactive = higher.

Assays:
Test in all cases: DTP human tumour cell line panel, 48 h
XF498 = tested on: XF498
A498 = tested on: A498
KM-20L2 = tested on: KM-20L2
UACC-257 = tested on: UACC-257
MOLT-4 = tested on: MOLT-4
HOP-92 = tested on: HOP-92
SK-MEL-2 = tested on: SK-MEL-2
IGROV-1 = tested on: IGROV-1
K562 = tested on: K562
786-0 = tested on: 786-0
SNB-78 = tested on: SNB-78
LOX IMVI = tested on: LOX IMVI
SNB-75 = tested on: SNB-75
EKVX = tested on: EKVX
OVCAR-5 = tested on: OVCAR-5
M19-MEL = tested on: M19-MEL
SF-268 = tested on: SF-268
HT-29 = tested on: HT-29
KM12 = tested on: KM12
HCT-116 = tested on: HCT-116
UO-31 = tested on: UO-31
TK-10 = tested on: TK-10
DMS-273 = tested on: DMS-273
SNB-19 = tested on: SNB-19
HOP-18 = tested on: HOP-18
COLO 205 = tested on: COLO 205
DLD-1 = tested on: DLD-1
ACHN = tested on: ACHN
OVCAR-8 = tested on: OVCAR-8
HCC 2998 = tested on: HCC 2998
NCI-H460 = tested on: NCI-H460
DMS-114 = tested on: DMS-114
SF-295 = tested on: SF-295
HOP-62 = tested on: HOP-62
SK-MEL-28 = tested on: SK-MEL-28
RXF 393 = tested on: RXF 393
Malme-3M = tested on: Malme-3M
U-251 = tested on: U-251
SK-OV-3 = tested on: SK-OV-3
HL-60 = tested on: HL-60
OVCAR-3 = tested on: OVCAR-3
RPMI-8226 = tested on: RPMI-8226
A549 = tested on: A549
LXFL 529 = tested on: LXFL 529
NCI-H23 = tested on: NCI-H23
SW-620 = tested on: SW-620
CCRF-CEM = tested on: CCRF-CEM
M14 = tested on: M14
HCT-15 = tested on: HCT-15
NCI-H226 = tested on: NCI-H226
NCI-H522 = tested on: NCI-H522
OVCAR-4 = tested on: OVCAR-4
UACC-62 = tested on: UACC-62
SR = tested on: SR
SF-539 = tested on: SF-539
SK-MEL-5 = tested on: SK-MEL-5

Question: How did the GI50 (XF498) turn out when `Clc1ccc2c(c1)C1C(CO2)C(c2ccccc2)=NN1c1ccccc1` (stereo unspecified) was run?
Answer: 14.9 µM (inactive)

Question: What about the GI50 (A498) of the same molecule?
Answer: > 100 µM (inactive)

Question: And the GI50 (KM-20L2)?
Answer: 79.6 µM (inactive)

Question: What about the GI50 (UACC-257) of the same molecule?
Answer: 49.7 µM (inactive)

Question: What about the GI50 (MOLT-4) of the same molecule?
Answer: 22 µM (inactive)

Question: What about the GI50 (HOP-92) of the same molecule?
Answer: 18.6 µM (inactive)

Question: What about the GI50 (SK-MEL-2) of the same molecule?
Answer: 26.9 µM (inactive)

Question: What about the GI50 (IGROV-1) of the same molecule?
Answer: 22.9 µM (inactive)

Question: And the GI50 (K562)?
Answer: 26.2 µM (inactive)

Question: What about the GI50 (786-0) of the same molecule?
Answer: 24.9 µM (inactive)

Question: And the GI50 (SNB-78)?
Answer: 29.9 µM (inactive)

Question: And the GI50 (LOX IMVI)?
Answer: > 10 µM (inactive)

Question: What about the GI50 (SNB-75) of the same molecule?
Answer: 20.1 µM (inactive)

Question: And the GI50 (EKVX)?
Answer: 11.8 µM (inactive)

Question: And the GI50 (OVCAR-5)?
Answer: > 100 µM (inactive)

Question: And the GI50 (M19-MEL)?
Answer: 26.5 µM (inactive)

Question: And the GI50 (SF-268)?
Answer: 42.5 µM (inactive)

Question: And the GI50 (HT-29)?
Answer: 76.9 µM (inactive)

Question: And the GI50 (KM12)?
Answer: 31.6 µM (inactive)

Question: What about the GI50 (HCT-116) of the same molecule?
Answer: 16.1 µM (inactive)

Question: What about the GI50 (UO-31) of the same molecule?
Answer: 15 µM (inactive)

Question: What about the GI50 (TK-10) of the same molecule?
Answer: 82.8 µM (inactive)

Question: What about the GI50 (DMS-273) of the same molecule?
Answer: 28.7 µM (inactive)

Question: What about the GI50 (SNB-19) of the same molecule?
Answer: 34.5 µM (inactive)

Question: What about the GI50 (HOP-18) of the same molecule?
Answer: 1.07 µM (active)

Question: What about the GI50 (COLO 205) of the same molecule?
Answer: 71.3 µM (inactive)

Question: And the GI50 (DLD-1)?
Answer: 35.1 µM (inactive)

Question: What about the GI50 (ACHN) of the same molecule?
Answer: 35.2 µM (inactive)

Question: And the GI50 (OVCAR-8)?
Answer: 28.6 µM (inactive)

Question: What about the GI50 (HCC 2998) of the same molecule?
Answer: 43.8 µM (inactive)

Question: And the GI50 (NCI-H460)?
Answer: 36.2 µM (inactive)

Question: And the GI50 (DMS-114)?
Answer: 24.6 µM (inactive)

Question: What about the GI50 (SF-295) of the same molecule?
Answer: 35.6 µM (inactive)

Question: What about the GI50 (HOP-62) of the same molecule?
Answer: 37 µM (inactive)

Question: And the GI50 (SK-MEL-28)?
Answer: 54.1 µM (inactive)

Question: What about the GI50 (RXF 393) of the same molecule?
Answer: 24.2 µM (inactive)

Question: What about the GI50 (Malme-3M) of the same molecule?
Answer: 43 µM (inactive)

Question: And the GI50 (U-251)?
Answer: 34.8 µM (inactive)

Question: And the GI50 (SK-OV-3)?
Answer: > 100 µM (inactive)

Question: And the GI50 (HL-60)?
Answer: 17.3 µM (inactive)

Question: What about the GI50 (OVCAR-3) of the same molecule?
Answer: 23 µM (inactive)

Question: And the GI50 (RPMI-8226)?
Answer: 12.4 µM (inactive)

Question: And the GI50 (A549)?
Answer: 32.7 µM (inactive)

Question: And the GI50 (LXFL 529)?
Answer: 29.6 µM (inactive)

Question: What about the GI50 (NCI-H23) of the same molecule?
Answer: 33.7 µM (inactive)

Question: What about the GI50 (SW-620) of the same molecule?
Answer: 39.7 µM (inactive)

Question: And the GI50 (CCRF-CEM)?
Answer: 24.9 µM (inactive)

Question: For `CN1/C(=N\c2ccccc2)S/C1=N/c1ccccc1`, which GI50 (XF498) is on record?
Answer: 9.57 µM (inactive)

Question: What about the GI50 (A498) of the same molecule?
Answer: 96.4 µM (inactive)

Question: And the GI50 (M14)?
Answer: 72.1 µM (inactive)

Question: What about the GI50 (HCT-15) of the same molecule?
Answer: 90.8 µM

Question: And the GI50 (UACC-257)?
Answer: > 100 µM (inactive)

Question: And the GI50 (MOLT-4)?
Answer: 69.3 µM (inactive)

Question: And the GI50 (HOP-92)?
Answer: 10.2 µM (inactive)

Question: And the GI50 (SK-MEL-2)?
Answer: 27.2 µM (inactive)

Question: What about the GI50 (IGROV-1) of the same molecule?
Answer: > 100 µM (inactive)

Question: And the GI50 (K562)?
Answer: 56.5 µM (inactive)

Question: And the GI50 (786-0)?
Answer: > 100 µM (inactive)

Question: What about the GI50 (SNB-78) of the same molecule?
Answer: > 100 µM (inactive)

Question: What about the GI50 (NCI-H226) of the same molecule?
Answer: > 100 µM (inactive)

Question: What about the GI50 (LOX IMVI) of the same molecule?
Answer: 74.6 µM (inactive)

Question: What about the GI50 (SNB-75) of the same molecule?
Answer: 6.62 µM (inactive)

Question: And the GI50 (EKVX)?
Answer: 60.1 µM (inactive)

Question: What about the GI50 (OVCAR-5) of the same molecule?
Answer: > 100 µM (inactive)

Question: And the GI50 (M19-MEL)?
Answer: 21.8 µM (inactive)

Question: And the GI50 (NCI-H522)?
Answer: 14.4 µM (inactive)

Question: What about the GI50 (SF-268) of the same molecule?
Answer: > 100 µM (inactive)

Question: What about the GI50 (HT-29) of the same molecule?
Answer: 55.5 µM (inactive)

Question: And the GI50 (KM12)?
Answer: 52.2 µM (inactive)

Question: What about the GI50 (HCT-116) of the same molecule?
Answer: 47.6 µM (inactive)

Question: And the GI50 (UO-31)?
Answer: > 100 µM (inactive)

Question: And the GI50 (TK-10)?
Answer: > 100 µM (inactive)

Question: And the GI50 (DMS-273)?
Answer: 87.3 µM (inactive)

Question: What about the GI50 (SNB-19) of the same molecule?
Answer: > 100 µM (inactive)

Question: What about the GI50 (HOP-18) of the same molecule?
Answer: 69 µM (inactive)

Question: What about the GI50 (COLO 205) of the same molecule?
Answer: 61 µM (inactive)

Question: What about the GI50 (DLD-1) of the same molecule?
Answer: 23.4 µM (inactive)

Question: What about the GI50 (ACHN) of the same molecule?
Answer: 70.6 µM (inactive)

Question: What about the GI50 (OVCAR-8) of the same molecule?
Answer: > 100 µM (inactive)

Question: What about the GI50 (OVCAR-4) of the same molecule?
Answer: 59.7 µM (inactive)

Question: What about the GI50 (UACC-62) of the same molecule?
Answer: > 100 µM (inactive)

Question: What about the GI50 (HCC 2998) of the same molecule?
Answer: 66.8 µM (inactive)

Question: What about the GI50 (NCI-H460) of the same molecule?
Answer: > 100 µM (inactive)

Question: And the GI50 (DMS-114)?
Answer: 23.6 µM (inactive)

Question: What about the GI50 (SF-295) of the same molecule?
Answer: > 100 µM (inactive)

Question: What about the GI50 (HOP-62) of the same molecule?
Answer: > 100 µM (inactive)

Question: And the GI50 (SK-MEL-28)?
Answer: > 100 µM (inactive)

Question: What about the GI50 (Malme-3M) of the same molecule?
Answer: 23.1 µM (inactive)

Question: And the GI50 (U-251)?
Answer: > 100 µM (inactive)

Question: And the GI50 (SK-OV-3)?
Answer: > 100 µM (inactive)

Question: And the GI50 (SR)?
Answer: 95.7 µM (inactive)

Question: What about the GI50 (HL-60) of the same molecule?
Answer: 27.2 µM (inactive)

Question: And the GI50 (OVCAR-3)?
Answer: 34.1 µM (inactive)

Question: And the GI50 (RPMI-8226)?
Answer: 39.5 µM (inactive)

Question: And the GI50 (A549)?
Answer: 86.1 µM (inactive)

Question: What about the GI50 (SF-539) of the same molecule?
Answer: > 100 µM (inactive)

Question: What about the GI50 (LXFL 529) of the same molecule?
Answer: 82.2 µM (inactive)

Question: And the GI50 (NCI-H23)?
Answer: 40 µM (inactive)

Question: What about the GI50 (SW-620) of the same molecule?
Answer: > 100 µM (inactive)

Question: And the GI50 (CCRF-CEM)?
Answer: 69.3 µM (inactive)

Question: What about the GI50 (SK-MEL-5) of the same molecule?
Answer: 28.9 µM (inactive)
